# Experimental data taken from US9796726B2, “Dihydroquinoline pyrazolyl compounds” (Hoffmann-La Roche Inc., priority 2014, dated 2017).
# Tests used:
# human CYP11B1 = target: T1, human CYP11B1 (Homo sapiens, UniProt P15538); assay: G-402 cellular enzyme assay, human CYP11B1 (cortisol release, HTRF); assay type: cell-based; conditions: stable G-402 cells expressing human CYP11B1; 1 μM Deoxycortisol; 16 h
# T1 construct: The expression plasmids contains the ORF for either human/cyno CYP11B1 or CYP11B2; expressed in transfected cells
# T1 sequence (P15538 25-503): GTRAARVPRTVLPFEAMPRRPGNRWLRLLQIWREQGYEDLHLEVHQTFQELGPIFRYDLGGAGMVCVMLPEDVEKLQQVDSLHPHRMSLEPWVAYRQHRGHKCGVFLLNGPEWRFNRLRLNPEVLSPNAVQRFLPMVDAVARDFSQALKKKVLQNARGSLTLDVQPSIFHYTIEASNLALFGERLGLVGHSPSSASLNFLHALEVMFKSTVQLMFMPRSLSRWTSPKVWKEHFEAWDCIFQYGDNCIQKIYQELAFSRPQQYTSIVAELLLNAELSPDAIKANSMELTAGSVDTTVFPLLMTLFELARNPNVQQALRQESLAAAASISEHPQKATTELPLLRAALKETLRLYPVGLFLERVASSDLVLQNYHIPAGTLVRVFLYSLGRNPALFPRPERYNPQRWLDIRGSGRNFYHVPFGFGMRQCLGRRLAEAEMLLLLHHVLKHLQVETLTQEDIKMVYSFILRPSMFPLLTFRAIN
# Source text: Herein we identified the use of the G-402 cell line as a host cell to ectopically express (transiently or stably) enzymes of the CYP11 family. Specifically we developed stable G-402 cells expressing ectopically human CYP11B1, human CYP11B2, human CYP11A1, cynmolgus CYP11B1 or cynomolgus CYP11B2 enzyme activity. Importantly the identified cell line G-402 expresses co-factors (adrenodoxin and adrenodoxin reductase) important for the activity of the CYP11 family and no relevant enzyme activity of the CYP11 family (in comparison to H295R cells) was detected in these cells. Therefore the G-402 cell line is uniquely suited as a host cell for the ectopic expression of enzymes from the CYP11 family.
# G-402 cells can be obtained from ATCC (CRL-1440) and were originally derived from a renal leiomyoblastoma.
# The expression plasmids contains the ORF for either human/cyno CYP11B1 or CYP11B2 under the control of a suitable promoter (CMV-promoter) and a suitable resistance marker (neomycin). Using standard techniques the expression plasmid is transfected into G-402 cells and these cells are then selected for expressing the given resistance markers. Individual cell-clones are then selected and assessed for displaying the desired enzymatic activity using 11-Deoxycorticosterone (Cyp11B2) or 11-Deoxycortisol (Cyp11B1) as a substrate.
# G-402 cells expressing CYP11 constructs were established as described above and maintained in McCoy's 5a Medium Modified, ATCC Catalog No. 30-2007 containing 10% FCS and 400 μg/ml G418 (Geneticin) at 37° C. under an atmosphere of 5% CO2/95% air. Cellular enzyme assays were performed in DMEM/F12 medium containing 2.5% charcoal treated FCS and appropriate concentration of substrate (0.3-10 uM 11-Deoxycorticosterone, 11-Deoxycortisol or Corticosterone). For assaying enzymatic activity, cells were plated onto 96 well plates and incubated for 16 h. An aliquot of the supernatant is then transferred and analyzed for the concentration of the expected product (Aldosterone for CYP11B2; Cortisol for CYP11B1). The concentrations of these steroids can be determined using HTRF assays from CisBio analyzing either Aldosterone or Cortisol.
# Inhibition of the release of produced steroids can be used as a measure of the respective enzyme inhibition by test compounds added during the cellular enzyme assay. The dose dependent inhibition of enzymatic activity by a compound is calculated by means of plotting added inhibitor concentrations (x-axes) vs. measured steroid/product level (y-axes). The inhibition is then calculated by fitting the following 4-parameter sigmoidal function (Morgan-Mercer-Flodin (MMF) model) to the raw data points using the least squares method:
# [formula] wherein, A is the maximum y value, B is the EC50 factor determined using XLFit, C is the minimum y value and D is the slope value.
# EC50 values for compounds claimed herein were tested with the G402-based assay system described. Cyp11B2 enzyme activity was tested in presence of 1 μM Deoxycorticosterone and variable amounts of inhibitors; Cyp11B1 enzyme activity was tested in presence of 1 μM Deoxycortisol and variable amounts of inhibitors.
# [1] = rat, cited from earlier work; for plasma aldosterone: FAD286 following 4 weeks of treatment, spironolactone at 4 and 8 weeks
# CYP11B2 = CYP11B2 (Homo sapiens, UniProt P19099); conditions: patients with primary aldosteronism, cited from earlier work
# Chain of CYP11B2 (P19099 25-503): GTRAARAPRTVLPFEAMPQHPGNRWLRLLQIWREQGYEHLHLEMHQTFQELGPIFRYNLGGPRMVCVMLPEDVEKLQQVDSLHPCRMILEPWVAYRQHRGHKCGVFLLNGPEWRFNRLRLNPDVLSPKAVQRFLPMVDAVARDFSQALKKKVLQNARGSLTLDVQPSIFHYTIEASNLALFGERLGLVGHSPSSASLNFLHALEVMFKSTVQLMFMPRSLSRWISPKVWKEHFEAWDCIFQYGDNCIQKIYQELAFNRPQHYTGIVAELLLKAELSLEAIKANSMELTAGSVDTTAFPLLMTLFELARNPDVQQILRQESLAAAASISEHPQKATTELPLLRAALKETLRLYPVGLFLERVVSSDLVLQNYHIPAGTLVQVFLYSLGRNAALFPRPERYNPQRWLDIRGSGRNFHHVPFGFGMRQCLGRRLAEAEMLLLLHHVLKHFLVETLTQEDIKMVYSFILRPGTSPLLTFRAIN
smiles,measurement,setting,value
"CN1C(=O)CCc2cc(-c3n[nH]cc3CN3CCN(C(=O)c4cnn(C)c4)CC3)cc(Cl)c21 [Example 44, 8-Chloro-1-methyl-6-[4-[[4-(1-methylpyrazole-4-carbonyl)piperazin-1-yl]methyl]-1H-pyrazol-3-yl]-3,4-dihydroquinolin-2-one]",EC50,human CYP11B1,> 30 nM
"CC(=O)N1CCN(Cc2c[nH]nc2-c2ccc3c(c2)CCC(=O)N3C)C[C@H]1C [Example 49, (−)-6-[4-[[(3R)-4-Acetyl-3-methyl-piperazin-1-yl]methyl]-1H-pyrazol-3-yl]-1-methyl-3,4-dihydroquinolin-2-one]",EC50,human CYP11B1,> 30 nM
"CN1C(=O)CCc2c1ccc(-c1n[nH]cc1CN1CC3(C1)CN(C(=O)c1cnn(C)c1)C3)c2Cl [Example 53, 5-Chloro-1-methyl-6-[4-[[2-(1-methylpyrazole-4-carbonyl)-2,6-diazaspiro[3.3]heptan-6-yl]methyl]-1H-pyrazol-3-yl]-3,4-dihydroquinolin-2-one]",EC50,human CYP11B1,> 30 nM
"CCS(=O)(=O)N1CC2(CN(Cc3c[nH]nc3-c3ccc4c(c3Cl)CCC(=O)N4C)C2)C1 [Example 54, 5-Chloro-6-[4-[(2-ethylsulfonyl-2,6-diazaspiro[3.3]heptan-6-yl)methyl]-1H-pyrazol-3-yl]-1-methyl-3,4-dihydroquinolin-2-one]",EC50,human CYP11B1,> 30 nM
"CCS(=O)(=O)N1CC2(CN(Cc3cn[nH]c3-c3ccc4c(c3)CCC(=O)N4C)C2)C1 [Example 56, 6-[4-[(2-Ethylsulfonyl-2,6-diazaspiro[3.3]heptan-6-yl)methyl]-1H-pyrazol-3-yl]-1-methyl-3,4-dihydroquinolin-2-one]",EC50,human CYP11B1,> 30 nM
"CC(=O)N1CC2(CN(Cc3cn[nH]c3-c3ccc4c(c3Cl)CCC(=O)N4C)C2)C1 [Example 59, 6-[4-[(2-Acetyl-2,6-diazaspiro[3.3]heptan-6-yl)methyl]-1H-pyrazol-3-yl]-5-chloro-1-methyl-3,4-dihydroquinolin-2-one]",EC50,human CYP11B1,> 30 nM
"CN1C(=O)CCc2cc(-c3[nH]ncc3CN3CC4(C3)CN(C(=O)c3cnn(C)c3)C4)cc(Cl)c21 [Example 60, 8-Chloro-1-methyl-6-[4-[[2-(1-methylpyrazole-4-carbonyl)-2,6-diazaspiro[3.3]heptan-6-yl]methyl]-1H-pyrazol-3-yl]-3,4-dihydroquinolin-2-one]",EC50,human CYP11B1,> 30 nM
"CCS(=O)(=O)N1CC2(CN(Cc3cn[nH]c3-c3cc(Cl)c4c(c3)CCC(=O)N4C)C2)C1 [Example 62, 8-Chloro-6-[4-[(2-ethylsulfonyl-2,6-diazaspiro[3.3]heptan-6-yl)methyl]-1H-pyrazol-3-yl]-1-methyl-3,4-dihydroquinolin-2-one]",EC50,human CYP11B1,> 30 nM
"CN1C(=O)CCc2cc(-c3[nH]ncc3CN3CC4(C3)CN(C(=O)c3nccn3C)C4)ccc21 [Example 63, 1-Methyl-6-[4-[[2-(1-methylimidazole-2-carbonyl)-2,6-diazaspiro[3.3]heptan-6-yl]methyl]-1H-pyrazol-3-yl]-3,4-dihydroquinolin-2-one]",EC50,human CYP11B1,> 30 nM
"CN1C(=O)CCc2cc(-c3[nH]ncc3CN3CC4(C3)CN(C(=O)c3ncccc3Cl)C4)ccc21 [Example 64, 6-[4-[[2-(3-Chloropyridine-2-carbonyl)-2,6-diazaspiro[3.3]heptan-6-yl]methyl]-1H-pyrazol-3-yl]-1-methyl-3,4-dihydroquinolin-2-one]",EC50,human CYP11B1,> 30 nM
N#Cc1ccc(C2CCCc3cncn32)cc1 (centres unmarked) [FAD286],plasma aldosterone,[1],reduced
N#Cc1ccc([C@H]2CCc3cncn32)c(F)c1 [LCI699],blood pressure,CYP11B2,mildly decreased
same,hypokalemia,CYP11B2,corrected
same,selectivity (effects on the glucocorticoid axis),CYP11B2,poor selectivity
same,circulating aldosterone levels,CYP11B2; oral,significantly lower
CC(=O)S[C@@H]1CC2=CC(=O)CC[C@]2(C)[C@H]2CC[C@@]3(C)[C@@H](CC[C@@]34CCC(=O)O4)[C@H]12 [spironolactone],plasma aldosterone,[1],increased
same,angiotensin II and salt-stimulated PAI-1 mRNA expression in the aorta and the heart,[1],enhanced
